Assay results: patent publication US9156796B2, “Benzoimidazole-carboxylic acid amide derivatives as APJ receptor modulators” (SANOFI, priority 2013, dated 2015)

biological target: T1, human apelin receptor (Homo sapiens, UniProt P35414); assay: Determination of agonism on the human apelin receptor by a calcium fluorescence assay (FLIPR); format: cell-based; settings: HEK293 cells stably transfected with human apelin receptor and Giaq protein, Fluo-4 calcium fluorescence, read-out: EC50 (APJ agonism)
T1 construct: expressed in transfected cells
T1 sequence (P35414 1-380): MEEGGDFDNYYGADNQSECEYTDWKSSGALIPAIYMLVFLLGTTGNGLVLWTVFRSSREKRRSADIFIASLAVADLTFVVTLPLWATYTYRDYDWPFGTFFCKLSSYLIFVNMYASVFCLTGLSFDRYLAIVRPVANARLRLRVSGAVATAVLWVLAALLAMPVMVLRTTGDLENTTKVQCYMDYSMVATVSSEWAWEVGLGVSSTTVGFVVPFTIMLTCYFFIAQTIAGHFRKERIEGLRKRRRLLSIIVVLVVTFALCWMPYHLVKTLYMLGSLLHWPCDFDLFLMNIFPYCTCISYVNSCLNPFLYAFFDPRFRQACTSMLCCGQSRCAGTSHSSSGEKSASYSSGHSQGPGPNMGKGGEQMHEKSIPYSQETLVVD
How it was run: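 HEK293 cells stably co-expressing human apelin receptor and promiscuous Giaq, loaded 1 h at 37 °C with Fluo-4 (4 μM) in probenecid-containing Hepes buffer, pH 7.4. Compounds, at least 7 concentrations in triplicate, added in FLIPR Tetra; peak calcium fluorescence normalized to 1 μM apelin-13 as 100% to derive EC50.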

| SMILES | EC50 |
| --- | --- |
| CC(C)C[C@@H](CC(=O)O)NC(=O)c1ccc2c(c1)nc(Cc1cccs1)n2C1CCCCC1C (stereo partly drawn) [Example 101, (S)-5-Methyl-3-{[1-(2-methyl-cyclohexyl)-2-thiophen-2-ylmethyl-1H-benzoimidazole-5-carbonyl]-amino}-hexanoic acid] | 106 nM |
| CC(C)C[C@@H](CC(=O)O)NC(=O)c1ccc2c(c1)nc(Cc1cccs1)n2C1CCCCC1C(F)(F)F (stereo partly drawn) [Example 102, (S)-5-Methyl-3-{[2-thiophen-2-ylmethyl-1-(2-trifluoromethyl-cyclohexyl)-1H-benzoimidazole-5-carbonyl]-amino}-hexanoic acid] | 247 nM |
| CC(C)C[C@@H](CC(=O)O)NC(=O)c1ccc2c(c1)nc(Cc1cccs1)n2C1CCCC1C (stereo partly drawn) [Example 104, (S)-5-Methyl-3-{[1-(2-methyl-cyclopentyl)-2-thiophen-2-ylmethyl-1H-benzoimidazole-5-carbonyl]-amino}-hexanoic acid] | 479 nM |
| CC(C)C[C@@H](CC(=O)O)NC(=O)c1ccc2c(c1)nc(Cc1cncs1)n2[C@@H]1CCCC[C@H]1C [Example 106, (S)-5-Methyl-3-{[1-((1R,2R)-2-methyl-cyclohexyl)-2-thiazol-5-ylmethyl-1H-benzoimidazole-5-carbonyl]-amino}-hexanoic acid] | 48 nM |
| CCC(CC)n1c(Cc2cccs2)nc2cc(C(=O)N[C@H](CC(=O)O)CC(C)C)ccc21 [Example 107, (S)-3-{[1-(1-Ethyl-propyl)-2-thiophen-2-ylmethyl-1H-benzoimidazole-5-carbonyl]-amino}-5-methyl-hexanoic acid] | 47 nM |
| CCC(C)Cn1c(CC2CCCC2)nc2cc(C(=O)N[C@@H](CC(C)C)C(=O)O)ccc21 (stereo partly drawn) [Example 109, (S)-2-{[2-Cyclopentylmethyl-1-(2-methyl-butyl)-1H-benzoimidazole-5-carbonyl]-amino}-4-methyl-pentanoic acid] | 3860 nM |
| CC(C)C[C@H](NC(=O)c1ccc2c(c1)nc(Cc1cccs1)n2C1CCCC1)C(=O)O [Example 110, (S)-2-[(1-Cyclopentyl-2-thiophen-2-ylmethyl-1H-benzoimidazole-5-carbonyl)-amino]-4-methyl-pentanoic acid] | 2030 nM |
| CC(C)C[C@H](NC(=O)c1ccc2c(c1)nc(CC1CCCC1)n2C1CCCCC1)C(=O)O [Example 112, (S)-2-[(1-Cyclohexyl-2-cyclopentylmethyl-1H-benzoimidazole-5-carbonyl)-amino]-4-methyl-pentanoic acid] | 12800 nM |
| CCC(C)Cn1c(Cc2cccs2)nc2cc(C(=O)N[C@@H](CC(C)C)C(=O)O)ccc21 (stereo partly drawn) [Example 113, (S)-4-Methyl-2-{[1-(2-methyl-butyl)-2-thiophen-2-ylmethyl-1H-benzoimidazole-5-carbonyl]-amino}-pentanoic acid] | 21700 nM |
| Cc1ccc(-n2c(Cc3cccs3)nc3cc(C(=O)N[C@@H](CC(C)C)C(=O)O)ccc32)cc1 [Example 115, (S)-4-Methyl-2-[(2-thiophen-2-ylmethyl-1-p-tolyl-1H-benzoimidazole-5-carbonyl)-amino]-pentanoic acid] | 34600 nM |
| CCC(CC)n1c(Cc2ccccc2)nc2cc(C(=O)N[C@@H](CC(C)C)C(=O)O)ccc21 [Example 116, (S)-2-{[2-Benzyl-1-(1-ethyl-propyl)-1H-benzoimidazole-5-carbonyl]-amino}-4-methyl-pentanoic acid] | 6710 nM |
| CCC(CC)n1c(Cc2ccoc2)nc2cc(C(=O)N[C@@H](CC(C)C)C(=O)O)ccc21 [Example 118, (S)-2-{[1-(1-Ethyl-propyl)-2-furan-3-ylmethyl-1H-benzoimidazole-5-carbonyl]-amino}-4-methyl-pentanoic acid] | 222 nM |
| CCC(CC)n1c(Cc2ccc(C)s2)nc2cc(C(=O)N[C@@H](CC(C)C)C(=O)O)ccc21 [Example 119, (S)-2-{[1-(1-Ethyl-propyl)-2-(5-methyl-thiophen-2-ylmethyl)-1H-benzoimidazole-5-carbonyl]-amino}-4-methyl-pentanoic acid] | 33100 nM |
| CCC(CC)n1c(CC2CCCCC2)nc2cc(C(=O)N[C@@H](CC(C)C)C(=O)O)ccc21 [Example 120, (S)-2-{[2-Cyclohexylmethyl-1-(1-ethyl-propyl)-1H-benzoimidazole-5-carbonyl]-amino}-4-methyl-pentanoic acid] | 24100 nM |
| CCC(C)[C@H](NC(=O)c1ccc2c(c1)nc(Cc1cccs1)n2C(CC)CC)C(=O)O (stereo partly drawn) [Example 121, (S)-2-{[1-(1-Ethyl-propyl)-2-thiophen-2-ylmethyl-1H-benzoimidazole-5-carbonyl]-amino}-3-methyl-pentanoic acid] | 74 nM |
| CCC(CC)n1c(Cc2cccs2)nc2cc(C(=O)N[C@H](C(=O)O)C(C)C)ccc21 [Example 122, (S)-2-{[1-(1-Ethyl-propyl)-2-thiophen-2-ylmethyl-1H-benzoimidazole-5-carbonyl]-amino}-3-methyl-butyric acid] | 4380 nM |

More lines, now with the values ahead:

| EC50 | SMILES |
| --- | --- |
| 5840 nM | CCC(CC)n1c(Cc2cccs2)nc2cc(C(=O)N[C@H](CC(=O)O)Cc3ccccc3)ccc21 [Example 100, (S)-3-{[1-(1-Ethyl-propyl)-2-thiophen-2-ylmethyl-1H-benzoimidazole-5-carbonyl]-amino}-4-phenyl-butyric acid] |
| 11000 nM | O=C(O)C[C@H](Cc1ccccc1)NC(=O)c1ccc2c(c1)nc(Cc1cccs1)n2C1CCCCC1C(F)(F)F (stereo partly drawn) [Example 103, (S)-4-Phenyl-3-{[2-thiophen-2-ylmethyl-1-(2-trifluoromethyl-cyclohexyl)-1H-benzoimidazole-5-carbonyl]-amino}-butyric acid] |
| 5470 nM | CCC(CC)n1c(Cc2ccno2)nc2cc(C(=O)N[C@H](CC(=O)O)CC(C)C)ccc21 [Example 105, (S)-3-{[1-(1-Ethyl-propyl)-2-isoxazol-5-ylmethyl-1H-benzoimidazole-5-carbonyl]-amino}-5-methyl-hexanoic acid] |
| 1060 nM | CC(C)C[C@H](NC(=O)c1ccc2c(c1)nc(Cc1cccs1)n2C1CCCCC1)C(=O)O [Example 108, (S)-2-[(1-Cyclohexyl-2-thiophen-2-ylmethyl-1H-benzoimidazole-5-carbonyl)-amino]-4-methyl-pentanoic acid] |
| 579 nM | CC(C)C[C@H](NC(=O)c1ccc2c(c1)nc(Cc1cccs1)n2C1CCCCCC1)C(=O)O [Example 111, (S)-2-[(1-Cycloheptyl-2-thiophen-2-ylmethyl-1H-benzoimidazole-5-carbonyl)-amino]-4-methyl-pentanoic acid] |
| 185 nM | CCC(CC)n1c(Cc2cccs2)nc2cc(C(=O)N[C@@H](CC(C)C)C(=O)O)ccc21 [Example 114, (S)-2-{[1-(1-Ethyl-propyl)-2-thiophen-2-ylmethyl-1H-benzoimidazole-5-carbonyl]-amino}-4-methyl-pentanoic acid] |
| 419 nM | CCC(CC)n1c(Cc2ccsc2)nc2cc(C(=O)N[C@@H](CC(C)C)C(=O)O)ccc21 [Example 117, (S)-2-{[1-(1-Ethyl-propyl)-2-thiophen-3-ylmethyl-1H-benzoimidazole-5-carbonyl]-amino}-4-methyl-pentanoic acid] |
| 1880 nM | CCC(CC)n1c(Cc2cccs2)nc2cc(C(=O)N[C@@H](CCSC)C(=O)O)ccc21 [Example 123, (S)-2-{[1-(1-Ethyl-propyl)-2-thiophen-2-ylmethyl-1H-benzoimidazole-5-carbonyl]-amino}-4-methylsulfanyl-butyric acid] |
